Assay results reported in patent US20080305186A1, “Method and Composition for the Treatment of Cardiac Hypertrophy” (BOARD OF REGENTS, THE UNIVERSITY OF TEXAS SYSTEM, priority 2007, published 2008).

System: cardiac gene expression
Assay: Microarray analysis of cardiac gene expression (GeneChip Mouse Genome 430 2.0)
Type: in vivo, mice
Conditions: mouse heart, vs isoproterenol only (CH)
Procedure: Microarray Sample Preparation and Analysis. Animal hearts were rapidly removed, and the atria and right ventricles were cut and immediately plunged into TRIzol Reagent (Life Technologies). Total RNA was isolated following the manufacturer's instructions, purified by phenol-chloroform extraction and then ethanol precipitation, and 20 μg further processed for microarray analysis. Briefly, cDNA synthesis, in vitro transcription, and labeling and fragmentation to produce the oligonucleotide probes were performed as instructed by the GeneChip manufacturer (Affymetrix). The probes were first hybridized to a test array (Affymetrix) and then to the GeneChip Mouse Genome 430 2.0 Array, using the GeneChip Hybridization Oven 640. The chips were washed in a GeneChip Fluidics Station 450 (Affymetrix), and the results were visualized with a GeneChip G7 scanner (Affymetrix). RMA normalization, pairwise comparisons, Student's t test and Benjamini and Hochberg correction were subsequently performed using GeneSifter (VizX Labs, Seattle, Wash.) and Spotfire DecisionSite 8.3 (Spotfire, Inc., Somerville, Mass.).
Effects on Gene Expression Profile. […] One mouse heart was used for each array, and was performed in triplicate, generating a total of 12 arrays. GeneSifter was used to perform RMA normalization, pairwise comparisons of averaged signal intensity values, and Student's t-test with Benjamini and Hochberg correction, and Spotfire was used to perform pairwise comparisons. […] Additionally, genes that were altered between any two N or cardiac hypertrophy samples were removed, as these alterations most likely represented normal variations between mice.

## C[C@H]1c2cccc(O)c2C(=O)C2=C(O)[C@]3(O)C(=O)C(C(N)=O)=C(O)[C@@H](N(C)C)[C@@H]3[C@@H](O)[C@@H]21 [doxycycline]
CH vs normal 3.3
  FC cDNA, AK012898: −2.9 fold
CH vs normal 3.4
  FC Cyclin G2 (Ccng2), NM_007635: −3.1 fold
  FC TRAF2 and K interacting kinase (Tnik), AI117633: −3.4 fold
  FC cDNA, BB098431: −1.8 fold
CH vs normal 3.5
  FC Interleukin-1 receptor-associated kinase 3 (Irak3), AV228493: −2.1 fold
CH vs normal 3.6
  FC CD163 antigen (CD163), NM_053094: −2.1 fold
CH vs normal 3.7
  FC ATP-binding cassette, sub-family A (ABC1), member 1 (Abca1), BB305534: −1.9 fold
  FC Mcf.2 transforming sequee-like (Mcf21), AV293368: −2.3 fold
  FC cDNA, BE956710: −4.4 fold
  FC cDNA, BG276629: −3.1 fold
CH vs normal 3.8
  FC Lipopolysaccharide binding protein (Lbp), NM_008489: −3.4 fold
CH vs normal 3.9
  FC Alcohol dehydrogenase 1, complex (Adh1), BC013477: −3.4 fold
  FC Nuclear factor of kappa light polypeptide gene enhaer in B-cells inhibitor, zeta (Nfkbiz), NM_030612: −2.7 fold
  FC cDNA, BB038506: −2.1 fold
CH vs normal 4.0
  FC Alpha-2-HS-glycoprotein (Ahsg), AI256465: −2.7 fold
CH vs normal 4.1
  FC BCL2/adenovirus E1B interacting protein 1, NIP3 (Bnip3), NM_009760: −2.0 fold
  FC Chitinase 3-like 3 (Chi313), NM_009892: −4.1 fold
  FC Colony stimulating factor 2 receptor, beta 2, low-affinity (granulocyte-macrophage) (Csf2rb2), NM_007781: −2.9 fold
CH vs normal 4.3
  FC NADPH oxidase 4 (Nox4), BC021378: −3.2 fold
CH vs normal 4.4
  FC Calcium-sensitive chloride conductae protein-1 (Clca1), AF047838: −3.6 fold
  FC Connector enhaer of kinase suppressor of Ras 1 (Cnksr1), BB739754: −3.6 fold
CH vs normal 4.5
  FC cDNA, AK008807: −2.7 fold
CH vs normal 4.6
  FC Arrestin domain containing 2 (Arrdc2), AW542672: −3.5 fold
  FC cDNA, BM117672: −3.2 fold
CH vs normal 4.7
  FC Serum amyloid A 3 (Saa3), NM_011315: −4.1 fold
CH vs normal 4.9
  FC Caer related gene-liver 1 (CRG-L1), AF282864: −3.0 fold
  FC Calcium/calmodulin-dependent protein kinase II, beta (Camk2b), BG862223: −4.0 fold
CH vs normal 5.0
  FC Aryl hydrocarbon receptor nuclear translocator-like (Arnt1), BC011080: −5.1 fold
CH vs normal 5.1
  FC Oostatin receptor (Osmr), NM_011019: −2.6 fold
CH vs normal 5.2
  FC cDNA, BE634869: −2.8 fold
CH vs normal 5.3
  FC cDNA, BB795572: −2.3 fold
CH vs normal 5.4
  FC cDNA, AK009753: −3.0 fold
CH vs normal 5.5
  FC cDNA, AI607873: −4.0 fold
CH vs normal 6.0
  FC Cytokine inducible SH2-containing protein 3 (Socs3), BB241535: −3.5 fold
CH vs normal 6.4
  FC Apolipoprotein D (Apod), NM_007470: −3.4 fold
  FC Cytochrome P450, 1b1, benz(a)anthracene inducible (Cyp1b1), NM_009994: −3.2 fold
  FC Membrane-spanning 4-domains, subfamily A, member 6d (Ms4a6d), NM_026835: −2.3 fold
CH vs normal 6.6
  FC mVL30-1 retroelement mRNA sequee, BG066678: −4.2 fold
CH vs normal 6.8
  FC Proteoglycan 4 (megakaryocyte stimulating factor, articular superficial zone protein) (Prg4), NM_021400: −3.3 fold
CH vs normal 7.0
  FC cDNA, BF719154: −3.2 fold
CH vs normal 7.4
  FC CCAATenhaer binding protein (CEBP), delta (Cebpd), BB831146: −4.1 fold
  FC Ca(2+)-sensitive chloride channel 2 (Clca2), AF108501: −5.1 fold
  FC Lysyl oxidase (Lox), M65143: −2.7 fold
CH vs normal 7.8
  FC cDNA, AU018141: −3.2 fold
CH vs normal 8.2
  FC Cytokine inducible SH2-containing protein 3 (Socs3), BB831725: −4.9 fold
CH vs normal 10.6, first BF682848 line
  FC cDNA, BF682848: −5.7 fold
CH vs normal 10.8
  FC C-type (calcium dependent, carbohydrate recognition domain) lectin, superfamily member 8 (Clecsf8), NM_010819: −2.7 fold
CH vs normal 11.1
  FC Lysyl oxidase (Lox), NM_010728: −3.0 fold
CH vs normal 14.6
  FC Cyclin-dependent kinase inhibitor 1A (p21) (Cdkn1a), AK007630: −6.5 fold
CH vs normal 16.3
  FC FK506 binding protein 5 (51 kDa) (Fkbp5), BC015260: −4.5 fold
CH vs normal 21.4, second BF682848 line
  FC cDNA, BF682848: −5.2 fold
CH vs normal 27.7
  FC Lipocalin 2 (Lcn2), X14607: −13.3 fold
CH vs normal 40.5
  FC Serine protease inhibitor 2-2 (Spi2-2) (Serpin3n), NM_009252: −9.7 fold
CH vs normal −1.5
  FC Metallophosphoesterase domain containing 2 (Mpped2), AK012553: 2.0 fold
CH vs normal −1.6
  FC ATP-sensitive potassium channel subunit (Kir6.2) (Kcnj11), U73626: 1.8 fold
  FC CD99 antigen (CD99), AK002762: 1.6 fold
  FC CD248 antigen, endosialin (CD248), NM_054042: 1.7 fold
  FC cDNA, BB627097: 2.4 fold
  FC cDNA, BM229539: 2.1 fold
CH vs normal −1.7
  FC Cytoplasmic polyadenylation element binding protein 3 (Cpeb3), BB281000: 2.6 fold
